The molecules below were run against TNFα (Homo sapiens, UniProt P01375) (assay: HEK-Blue hTNFα reporter assay). Details: HEK-Blue hTNFα reporter cells, SEAP readout; read-out: IC50 Range.
Format: cell-based
Parameters: purchased R&D biosystem (R&D Systems) 210-TA-020/CF
Source text: Stimulation of HEK293 cells by TNFα leads to activation of the NF-κB pathway. The potency of compounds was examined in HEK-Blue™ hTNFα reporter cells (Invivogen, Cat #hkb-tnfdmyd). HEK-Blue™ TNFα cells were generated by stable transfection of HEK293 cell line with a SEAP reporter gene under the control of the […] minimal promoter fused to NF-κB binding sites. Stimulation of HEK-Blue™ TNFα cells with TNFα triggers the activation of the NF-κB-inducible promoter and the production of SEAP. Levels of SEAP in the supernatant can be easily determined using QUANTI-Blue™ Solution (Invivogen, cat #rep-qbs) by reading the OD at 620-655 nm.
HEK-Blue™ TNFα cells were cultured in DMEM supplemented with 10% FBS, 100p/mL penicillin, 100 μg/mL streptomycin, 100 μg/mL normocin, 1 μg/mL puromycin, and 100 μg/mL zeocin. The culture was maintained in culture incubator with 5% CO2 at 37° C. When used for assay, the cells were gently rinsed twice with pre-warmed phosphate buffered saline (PBS) and detached in presence of PBS by tapping the flask or by using a cell scraper. The cells were spun to remove PBS and resuspended in fresh, pre-warmed test medium (DMEM supplemented with 10% FBS, 100p/mL penicillin, and 100 μg/mL streptomycin). A serial dilution of work solution of tested compound was made in DMSO with 1000× of final concentration, and 40 nL of compound DMSO solution was transferred into 384-well plates (Corning 3764) by Echo, and incubated with 10 μL of recombinant hTNFα (R&D biosystem, Cat #210-TA-020/CF) for 1 h at 37° C. The compound/hTNFα mixture well received 30 μL HEK-Blue™ TNFα cell suspension at 10000 cells/well, and then incubated at 37° C. with 5% CO2 for 24 h. The final concentration of hTNFα is […]. After incubation, 5 μL of induced cell supernatant was transferred to a new 384-well plate well (Coring 3764) to mix with 45 μL of QUANTI-Blue Solution. After 1 h incubation at 37° C., the plate was read using a spectrophotometer at 620 nm.
The percentage of inhibition was calculated by the following formula: % inhibition=(positive control−Sample)/(positive control−negative control)*100 • Positive control: OD620 reading of cells with hTNFα stimulation. • Negative control: OD620 reading of cells without hTNFα stimulation. • Sample: OD620 reading of cells with compound at specific concentration and hTNFα stimulation
The % inhibition was plotted against compound concentration in logarithmic scale and the IC50 was rendered using 4-parameter nonlinear regression (GraphPad Prism).

TNFα, sequence (P01375 77-233 limits assumed): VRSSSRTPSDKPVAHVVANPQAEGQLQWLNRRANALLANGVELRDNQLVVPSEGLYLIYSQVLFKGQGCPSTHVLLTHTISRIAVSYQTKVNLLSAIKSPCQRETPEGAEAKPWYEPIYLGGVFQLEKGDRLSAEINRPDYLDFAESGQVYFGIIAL

| IC50 | Compound |
| --- | --- |
| < 25 nM | CN1C(=O)c2cccc(OC(F)F)c2C2CC1c1nn3ccc(-c4cnc(C5(N)CCC5)nc4)cc3c12 (stereo not drawn) [Example 14, 12-(2-(1-aminocyclobutyl)pyrimidin-5-yl)-1-(difluoromethoxy)-6-methyl-6,7-dihydro-7,14-methanobenzo[c]pyrido[1′,2′:1,5]pyrazolo[4,3-f]azocin-5 (14H)-one] |
| < 25 nM | CN1C(=O)c2cccc(OC(F)F)c2[C@H]2C[C@@H]1c1nn3ccc(-c4cnc([C@]5(O)C[C@@](C)(O)C5)nc4)nc3c12 [Example 16] |
| < 25 nM | CN1C(=O)c2cccc(OC(F)F)c2[C@H]2C[C@@H]1c1nn3ccc(-c4cnc(C5(N)CC5)nc4)cc3c12 [Example 17] |
| < 25 nM | CN1C(=O)c2cccc(OC(F)F)c2[C@H]2C[C@@H]1c1nn3ccc(-c4cnc([C@]5(O)C[C@@](C)(C#N)C5)nc4)cc3c12 [Example 18] |
| < 25 nM | CN1C(=O)c2cccc(OC(F)F)c2[C@H]2C[C@@H]1c1nn3ccc(-c4cnc(C(C)(C)O)nc4)cc3c12 [Example 19] |
| < 25 nM | CN1C(=O)c2cccc(OC(F)F)c2[C@H]2C[C@@H]1c1nn3ccc(-c4cnc(P(C)(C)=O)c(F)c4)cc3c12 [Example 21] |
| < 25 nM | CN1C(=O)c2cccc(OC(F)F)c2[C@H]2C[C@@H]1c1nn3cc(F)c(-c4cnc(C5(N)CCC5)nc4)nc3c12 [Example 23] |
| < 25 nM | CN1C(=O)c2cccc(OC(F)F)c2[C@H]2C[C@@H]1c1nn3ccc(-c4cnc([C@]5(O)C[C@@](C)(O)C5)nc4)cc3c12 [Example 24] |
| < 25 nM | CN1C(=O)c2cccc(OC(F)F)c2[C@H]2C[C@@H]1c1nn3cc(F)c(-c4ccc(P(C)(C)=O)nc4)nc3c12 [Example 25] |
| < 25 nM | CN1C(=O)c2cccc(OC(F)F)c2[C@H]2C[C@@H]1c1nn3cc(F)c(-c4cnc([C@]5(O)C[C@@](C)(O)C5)nc4)nc3c12 [Example 26] |
| < 25 nM | CN1C(=O)c2cccc(OC(F)F)c2[C@H]2C[C@@H]1c1nn3cc(F)c(-c4cnc([C@]5(N)C[C@@](C)(O)C5)nc4)nc3c12 [Example 27] |
| < 25 nM | CN1C(=O)c2cccc(OC(F)F)c2[C@H]2C[C@@H]1c1nn3ccc(-c4cnc([C@]5(N)C[C@@](C)(O)C5)nc4)cc3c12 [Example 28] |
| < 25 nM | CN1C(=O)c2cccc(OC(F)F)c2[C@H]2C[C@@H]1c1nn3cc(F)c(-c4ccc(P(C)(C)=O)nc4)cc3c12 [Example 29] |
| < 25 nM | CN1C(=O)c2cccc(OC(F)F)c2[C@H]2C[C@@H]1c1nn3cnc(-c4ccc(P(C)(C)=O)nc4)cc3c12 [Example 30] |
| < 25 nM | [2H]C([2H])([2H])N1C(=O)c2cccc(OC(F)F)c2[C@H]2C[C@@H]1c1nn3ccc(-c4ccc(P(C)(C)=O)nc4)cc3c12 [Example 31] |
| < 25 nM | CN1C(=O)c2cccc(OC(F)F)c2[C@H]2C[C@@H]1c1nn3cnc(-c4cnc([C@]5(O)C[C@@](C)(O)C5)nc4)cc3c12 [Example 32] |
| < 25 nM | [2H]C([2H])([2H])N1C(=O)c2cccc(OC(F)F)c2[C@H]2C[C@@H]1c1nn3ccc(-c4cnc([C@]5(O)C[C@@](C)(O)C5)nc4)cc3c12 [Example 33] |
| < 25 nM | CN1C(=O)c2ccc(F)c(OC(F)F)c2[C@H]2C[C@@H]1c1nn3ccc(-c4ccc(P(C)(C)=O)nc4)cc3c12 [Example 34] |
| < 25 nM | CN1C(=O)c2cc(F)cc(OC(F)F)c2[C@H]2C[C@@H]1c1nn3ccc(-c4ccc(P(C)(C)=O)nc4)cc3c12 [Example 35] |
| < 25 nM | CN1C(=O)c2cccc(OC(F)F)c2[C@H]2C[C@@H]1c1nn3cc(F)c(-c4cnc([C@]5(N)C[C@@](C)(O)C5)nc4)cc3c12 [Example 36] |
| < 25 nM | CN1C(=O)c2cccc(OC3CC3)c2[C@H]2C[C@@H]1c1nn3ccc(-c4cnc([C@]5(O)C[C@@](C)(O)C5)nc4)cc3c12 [Example 37] |
| < 25 nM | C[C@]1(O)C[C@](O)(c2ncc(-c3ccn4nc5c(c4c3)[C@@H]3C[C@H]5NC(=O)c4cccc(OC(F)F)c43)cn2)C1 [Example 38] |
| < 25 nM | CN1C(=O)c2cccc(OC(F)F)c2[C@H]2C[C@@H]1c1nn3cc(F)c(-c4cnc(P(C)(C)=O)c(F)c4)cc3c12 [Example 39] |

| IC50 | Compound |
| --- | --- |
| < 25 nM | CN1C(=O)c2cccc(OC(F)F)c2[C@H]2C[C@@H]1c1nn3ccc(-c4cnc([C@]5(N)C[C@@](C)(O)C5)c(F)c4)cc3c12 [Example 40] |
| < 25 nM | CN1C(=O)c2cccc(OC(F)F)c2[C@H]2C[C@@H]1c1nn3cc(F)c(-c4cnc(C5(N)CCC5)nc4)cc3c12 [Example 41] |
| < 25 nM | CN1C(=O)c2cccc(OC(F)F)c2[C@H]2C[C@@H]1c1nn3ccc(-c4cnc([C@]5(O)C[C@@](C)(O)C5)cn4)cc3c12 [Example 42] |
| < 25 nM | CN1C(=O)c2cccc(OC(F)F)c2[C@H]2C[C@@H]1c1nn3cc(F)c(-c4cnc([C@]5(O)C[C@@](C)(O)C5)cn4)cc3c12 [Example 43] |
| < 25 nM | CN1C(=O)c2cccc(OC(F)F)c2[C@H]2C[C@@H]1c1nn3cnc(-c4cnc([C@]5(O)C[C@@](C)(C#N)C5)nc4)cc3c12 [Example 45] |
| < 25 nM | CN1C(=O)c2cccc(OC(F)F)c2[C@H]2C[C@@H]1c1nn3cnc(-c4cnc([C@]5(N)C[C@@](C)(O)C5)nc4)cc3c12 [Example 46] |
| < 25 nM | CN1C(=O)c2cccc(OC(F)F)c2[C@H]2C[C@@H]1c1nn3cnc(-c4cnc([C@]5(N)C[C@@](C)(O)C5)c(F)c4)cc3c12 [Example 47] |
| < 25 nM | CN1C(=O)c2cccc(OC(F)F)c2[C@H]2C[C@@H]1c1nn3cnc(-c4cnc(C5(N)CCC5)nc4)cc3c12 [Example 48] |
| < 25 nM | CN1C(=O)c2cccc(OC(F)F)c2[C@H]2C[C@@H]1c1nn3ccc(-c4cnc(C5(N)COC5)nc4)cc3c12 [Example 49] |
| < 25 nM | CN1C(=O)c2cccc(OC(F)F)c2[C@H]2C[C@@H]1c1nn3cc(F)c(-c4cnc([C@]5(N)C[C@@](C)(O)C5)c(F)c4)nc3c12 [Example 50] |
| < 25 nM | CN1C(=O)c2cccc(OC(F)F)c2[C@H]2C[C@@H]1c1nn3cc(F)c(-c4cnc([C@]5(N)C[C@@](C)(C#N)C5)nc4)nc3c12 [Example 51] |
| < 25 nM | [2H]C([2H])([2H])N1C(=O)c2cccc(OC(F)F)c2[C@H]2C[C@@H]1c1nn3ccc(-c4cnc(C5(N)CCC5)nc4)nc3c12 [Example 52] |
| < 25 nM | CN1C(=O)c2cccc(C#N)c2[C@H]2C[C@@H]1c1nn3ccc(-c4cnc(C5(N)CCC5)nc4)cc3c12 [Example 54] |
| < 25 nM | [2H]C([2H])([2H])N1C(=O)c2cccc(OC(F)F)c2[C@H]2C[C@@H]1c1nn3ccc(-c4cnc([C@]5(N)C[C@@](C)(C#N)C5)nc4)cc3c12 [Example 55] |
| < 25 nM | [2H]C([2H])([2H])N1C(=O)c2cccc(OC(F)F)c2[C@H]2C[C@@H]1c1nn3ccc(-c4cnc([C@]5(N)C[C@@](C)(C#N)C5)nc4)nc3c12 [Example 56] |
| < 25 nM | [2H]C([2H])([2H])N1C(=O)c2cccc(OC(F)F)c2[C@H]2C[C@@H]1c1nn3cc(F)c(-c4cnc([C@]5(N)C[C@@](C)(O)C5)nc4)nc3c12 [Example 57] |
| < 25 nM | C[C@]1(C#N)C[C@](N)(c2ncc(-c3cc4c5c(nn4cc3F)[C@H]3C[C@@H]5c4c(OC(F)F)cccc4C(=O)N3)cc2F)C1 [Example 58] |
| < 25 nM | CN1C(=O)c2cccc(OC(F)F)c2[C@H]2C[C@@H]1c1nn3cnc(-c4cnc([C@]5(N)C[C@@](C)(C#N)C5)c(F)c4)cc3c12 [Example 59] |
| < 25 nM | C[C@]1(C#N)C[C@](N)(c2ncc(-c3ccn4nc5c(c4n3)[C@@H]3C[C@H]5NC(=O)c4cccc(OC(F)F)c43)cn2)C1 [Example 60] |
| < 25 nM | [2H]C([2H])([2H])N1C(=O)c2cccc(OC(F)F)c2[C@H]2C[C@@H]1c1nn3cnc(-c4cnc([C@]5(N)C[C@@](C)(C#N)C5)nc4)cc3c12 [Example 61] |
| < 25 nM | CN1C(=O)c2cccc(OC(F)F)c2[C@H]2C[C@@H]1c1nn3ccc(-c4cnc([C@]5(O)CCOC5)nc4)cc3c12 [Example 63] |
| < 25 nM | CN1C(=O)c2cccc(OC(F)F)c2[C@H]2C[C@@H]1c1nn3ccc(-c4cnc([C@@]5(O)CCOC5)nc4)cc3c12 [Example 64] |

Same assay, conditions: HEK-Blue hTNFα reporter cells; read-out: TNFα reporter, Emax

| Emax | Compound |
| --- | --- |
| 91% | CN1C(=O)c2cccc(OC(F)F)c2[C@H]2C[C@@H]1c1nn3ccc(-c4cnc([C@]5(O)C[C@@](C)(O)C5)nc4)cc3c12 [Example 24] |
| 94% | CN1C(=O)c2cccc(OC(F)F)c2[C@H]2C[C@@H]1c1nn3cnc(-c4cnc([C@]5(N)C[C@@](C)(O)C5)c(F)c4)cc3c12 [Example 47] |
| 98% | CN1C(=O)c2cccc(OC(F)F)c2[C@H]2C[C@@H]1c1nn3cnc(-c4cnc([C@]5(N)C[C@@](C)(C#N)C5)c(F)c4)cc3c12 [Example 59] |

Same assay, conditions: HEK-Blue hTNFα reporter cells; read-out: TNFα reporter, IC50

| IC50 | Compound |
| --- | --- |
| 2.3 nM | CN1C(=O)c2cccc(OC(F)F)c2[C@H]2C[C@@H]1c1nn3ccc(-c4cnc([C@]5(O)C[C@@](C)(O)C5)nc4)cc3c12 [Example 24] |
| 3.6 nM | CN1C(=O)c2cccc(OC(F)F)c2[C@H]2C[C@@H]1c1nn3cnc(-c4cnc([C@]5(N)C[C@@](C)(O)C5)c(F)c4)cc3c12 [Example 47] |
| 4.1 nM | CN1C(=O)c2cccc(OC(F)F)c2[C@H]2C[C@@H]1c1nn3cnc(-c4cnc([C@]5(N)C[C@@](C)(C#N)C5)c(F)c4)cc3c12 [Example 59] |
